Assay results taken from PMC5807507, “Crystal structures of a bacterial dipeptidyl peptidase IV reveal a novel substrate recognition mechanism distinct from that of mammalian orthologues” (Scientific Reports, 2018).
Like-named read-outs stand apart in the source and are kept apart here.

What was measured:
PmDAP IV [1] = biological target: T1, PmDAP IV (Pseudoxanthomonas mexicana, UniProt Q6F3I7); experiment: Gly-Pro-MCA fluorescence hydrolysis inhibition; Ki by Cheng-Prusoff; assay type: biochemical
T1 construct: gene dap4; M12I lies in the removed signal; no tag; 723 residues, 82-kDa; homodimer; crystal model Ala22-Pro745
Source text: Gly-Pro-MCA fluorescence hydrolysis inhibition; Ki by Cheng-Prusoff on PmDAP IV
Target sequence in this assay (Q6F3I7 22-745): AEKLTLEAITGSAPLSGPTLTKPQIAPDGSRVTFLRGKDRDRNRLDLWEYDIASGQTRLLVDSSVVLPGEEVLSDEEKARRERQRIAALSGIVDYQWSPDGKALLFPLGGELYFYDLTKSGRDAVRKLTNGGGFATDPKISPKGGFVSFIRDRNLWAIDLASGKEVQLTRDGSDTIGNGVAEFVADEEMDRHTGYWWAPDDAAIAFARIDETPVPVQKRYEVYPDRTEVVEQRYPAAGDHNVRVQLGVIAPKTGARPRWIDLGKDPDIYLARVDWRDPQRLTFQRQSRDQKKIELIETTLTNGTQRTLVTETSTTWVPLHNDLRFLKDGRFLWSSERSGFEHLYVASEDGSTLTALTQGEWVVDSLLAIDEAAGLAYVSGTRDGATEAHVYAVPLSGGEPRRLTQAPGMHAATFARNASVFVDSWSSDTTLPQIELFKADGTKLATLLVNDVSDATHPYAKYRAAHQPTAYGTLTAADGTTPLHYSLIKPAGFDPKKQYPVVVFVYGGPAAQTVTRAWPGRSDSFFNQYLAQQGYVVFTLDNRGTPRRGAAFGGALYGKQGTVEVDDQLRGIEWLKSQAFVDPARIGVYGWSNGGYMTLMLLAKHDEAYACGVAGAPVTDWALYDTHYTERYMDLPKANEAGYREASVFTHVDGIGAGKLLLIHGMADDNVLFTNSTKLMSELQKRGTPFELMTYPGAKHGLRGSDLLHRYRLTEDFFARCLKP

PmDAP IV [2] = biological target: T1, PmDAP IV; experiment: biochemical
Procedure: Inhibitor sensitivities of PmDAP IV and human DPP IV Gliptins and diprotin A were purchased from NAMIKI SHOJI Co., Ltd. (Tokyo, Japan) and Peptide Institute, Inc. (Osaka, Japan), respectively. Half-maximal inhibitory concentration (IC50) values were determined by fitting to a sigmoid curve (4-parameter logistic curve) using ImageJ[73]. […] Inhibitor concentrations for PmDAP IV were 0.78, 1.56, 3.13, 6.25, 12.5, 25, 50 and 100 µM, and those for human DPP IV were 0.78, 1.56, 3.13, 6.25, 12.5, 25, 50 and 100 nM. Standard deviations were calculated from three independent experiments. Fluorescence intensity was measured with excitation at 355 nm and emission at 460 nm using an Infinite 200 PRO microplate reader. Inhibition constants (Ki) were calculated using the Cheng-Prusoff equation[74]. Arg106 of PmDAP IV, which is involved in the recognition of the carbonyl group of the P2 residue of the substrate peptide, was mutated to Ala or Lys. The mutants were expressed and purified using the method described above for wild-type PmDAP IV. Recombinant human DPP IV was purchased from ATGen Co., Ltd. (Los Angeles, USA). Kinetic parameters were determined by fitting the experimental data to the Michaelis–Menten equation using Excel Solver (Microsoft) by nonlinear least squares fitting for different concentrations (0.78, 1.56, 3.13, 6.25, 12.5, 25, 50 and 100 µM) of glycyl-L-proline 4-methylcoumaryl-7-amide (Gly-Pro-MCA, Peptide Institute) as a substrate. The enzyme reaction was performed in a reaction buffer containing 50 mM sodium phosphate buffer pH 8.0, 5 mM EDTA and 0.005% Tween 20 at 298 K for 20 min, and standard deviations were calculated from three independent experiments. The fluorescence intensity of the released MCA was measured with excitation at 355 nm and emission at 460 nm using an Infinite 200 PRO microplate reader (TECAN).
Target sequence in this assay (Q6F3I7 22-745 limits assumed): as the sequence (Q6F3I7 22-745) above

| Structure (SMILES) | Ki (PmDAP IV [1]; read-out: PmDAP IV / Ki) [µM] | IC50 (PmDAP IV [2]) [µM] | Ki (PmDAP IV [1]) [µM] |
| --- | --- | --- | --- |
| Cc1cc2ncc(C(=O)NCC(C)(C)NCC(=O)N3CCC[C@H]3C#N)cn2n1 [Anagliptin] | 3.99 ± 0.07 | 24.5 ± 0.4 |  |
| CC#CCn1c(N2CCC[C@@H](N)C2)nc2c1c(=O)n(Cc1nc(C)c3ccccc3n1)c(=O)n2C [Linagliptin] | 30 ± 1.16 | > 100 |  |
| CS(=O)(=O)n1cc2c(n1)CN([C@H]1CO[C@H](c3cc(F)ccc3F)[C@@H](N)C1)C2 [Omarigliptin] | 23.8 ± 3.8 | > 100 |  |
| N#C[C@@H]1C[C@@H]2C[C@@H]2N1C(=O)[C@@H](N)C12CC3CC(CC(O)(C3)C1)C2 [Saxagliptin] |  | 11.1 ± 0.8 | 1.85 ± 0.13 |
| N[C@@H](CC(=O)N1CCn2c(nnc2C(F)(F)F)C1)Cc1cc(F)c(F)cc1F [Sitagliptin] |  | 24.6 ± 3.6 | 4 ± 0.59 |
| Cc1cc(N2CCN([C@@H]3CN[C@H](C(=O)N4CCSC4)C3)CC2)n(-c2ccccc2)n1 [Teneligliptin] | 2.34 ± 0.09 |  |  |
| Cn1c(=O)cc(N2CCC[C@@H](N)C2)n(Cc2cc(F)ccc2C#N)c1=O [Trelagliptin] |  | > 100 |  |
| N#C[C@@H]1CCCN1C(=O)CNC12CC3CC(CC(O)(C3)C1)C2 [Vildagliptin] |  | 18.8 ± 2.4 | 3.07 ± 0.39 |
